Source: patent US9284286B2, “Specific carboxamides as KCNQ2/3 modulators” (GRÜNENTHAL GMBH, priority 2012, dated 2016)

Molecular target: T1, KCNQ2/3 channels (Homo sapiens, UniProt O43525+O43526)
T1 construct: expressed in transfected cells; host or cells: CHO-K1
Test: Fluorescence assay using a voltage sensitive dye (fluorimetry)
Type: cell-based
Details: CHO-K1 cells expressing KCNQ2/3 channels; for Emax: relative to retigabine = 100%, read-out: Fluorimetry % Efficacy (retigabine = 100%); for EC50: voltage-sensitive dye, KCl depolarisation, read-out: Fluorimetry EC50/IC50
Description: Pharmacological Experiments Fluorescence Assay Using a Voltage Sensitive Dye (Fluorimetry)
Human CHO-K1 cells expressing KCNQ2/3 channels are cultivated adherently at 37° C., 5% CC2 and 95% humidity in cell culture bottles (e.g. 80 cm^2 TC flasks, Nunc) with DMEM-high glucose (Sigma Aldrich, D7777) including 10% FCS (PAN Biotech, e.g. 3302-P270521) or alternatively MEM Alpha Medium (1×, liquid, Invitrogen, #22571), 10% fetal calf serum (FCS) (Invitrogen, #10270-106, heat-inactivated) and the necessary selection antibiotics.
Before being sown out for the measurements, the cells are washed with 1×DPBS buffer Ca^2+/Mg^2+-free (e.g. Invitrogen, #14190-094) and detached from the bottom of the culture vessel by using Accutase (PAA Laboratories, #L11-007) (incubation with Accutase for 15 min at 37° C.). The cell number is determined using a CASY™ cell counter (TCC, Schärfe System). Depending on the optimal density for each individual cell line, 20,000-30,000 cells/well/100 μl are seeded onto 96-well Corning™ CeIIBIND™ assay plates (Flat Clear Bottom Black Polystyrene Microplates, #3340). Freshly seeded cells are then left to settle for one hour at room temperature, followed by incubation for 24 hours at 37° C., 5% CO2 and 95% humidity.
The voltage-sensitive fluorescent dye from the Membrane Potential Assay Kit (Red™ Bulk format part R8123 for FLIPR, MDS Analytical Technologies™) is prepared by dissolving the contents of one vessel Membrane Potential Assay Kit Red Component A in 200 ml of extracellular buffer (ES buffer, 120 mM NaCl, 1 mM KCl, 10 mM HEPES, 2 mM CaCl2, 2 mM MgCl2, 10 mM glucose; pH 7.4). After removal of the nutrient medium, the cells are washed once with 200 μl of ES buffer, then loaded for 45 min at room temperature in 100 μl of dye solution in the dark.
Fluorescence measurements are carried out in a BMG Labtech FLUOstar™, BMG Labtech NOVOstar™ or BMG Labtech POLARstar™ instrument (525 nm excitation, 560 nm emission, Bottom Read mode). After incubation with the dye, 50 μl of the test substances in the desired concentrations, or 50 μl of ES buffer for control purposes, are applied to the wells of the assay plate and incubated for 30 min at room temperature while being shielded from light. The fluorescence intensity of the dye is then measured for 5 min and the fluorescence value F1 of each well is thus determined at a given, constant time. 15 μl of a KCl solution are then added to each well (final concentration of potassium ions 92 mM). The change in fluorescence intensity is subsequently monitored until all the relevant values have been obtained (mainly 5-30 min). At a given time post KCl application, a fluorescence value F2 is determined, in this case at the time of the fluorescence peak.
For calculation, the fluorescence intensity F2 is corrected for the fluorescence intensity F1, and the activity (ΔF/F) of the target compound on the potassium channel is determined as follows:
In order to determine whether a substance has agonistic activity,
[formula] can be related to
[formula] of control wells.
[formula] is determined by adding to the well only the buffer solution instead of the test substance, determining the value F1K of the fluorescence intensity, adding the potassium ions as described above, and measuring a value F2K of the fluorescence intensity. F2K and F1K are then calculated as follows: […]
A substance has an agonistic activity on the potassium channel if
[formula] is greater than
Independently of the comparison of
[formula] it is possible to conclude that a target compound has agonistic activity if
[formula] increases dose dependently.
Calculations of EC50 and IC50 values are carried out with the aid of ‘Prism v4.0’ software (GraphPad Software™).

| SMILES | Emax [%] | EC50 [nM] |
| --- | --- | --- |
| CC(C)CCNC(=O)c1ccccc1SCCC(F)(F)c1ccc(F)cc1 [Example 1, 2-[[3,3-Difluoro-3-(4-fluorophenyl)-propyl]sulfanyl]-N-(3-methyl-butyl)-benzamide] | 203 | 156 |
| CC(C)(C)CCNC(=O)c1ccccc1SCCCc1ccc(F)cc1 [Example 2, N-(3,3-Dimethyl-butyl)-2-[3-(4-fluorophenyl)-propylsulfanyl]-benzamide] | 186 | 501 |
| CC(C)CCNC(=O)c1nccnc1SCCC(F)(F)c1ccc(F)cc1 [Example 9, 3-[[3,3-Difluoro-3-(4-fluorophenyl)-propyl]sulfanyl]-N-(3-methyl-butyl)-pyrazine-2-carboxylic acid amide] | 199 | 521 |
| CC(C)CCNC(=O)c1cncnc1SCCC(F)(F)c1ccc(F)cc1 [Example 10, 4-[[3,3-Difluoro-3-(4-fluorophenyl)-propyl]sulfanyl]-N-(3-methyl-butyl)-pyrimidine-5-carboxylic acid amide] | 211 | 61 |
| O=C(NCc1ccc(F)cc1)c1cncnc1SCCC(F)(F)c1ccc(F)cc1 [Example 11, 4-[[3,3-Difluoro-3-(4-fluorophenyl)-propyl]sulfanyl]-N-[(4-fluorophenyl)-methyl]-pyrimidine-5-carboxylic acid amide] | 112 | 51 |
| O=C(NCc1ccc(F)cc1)c1ccnnc1SCCC(F)(F)c1ccc(F)cc1 [Example 13, 3-[[3,3-Difluoro-3-(4-fluorophenyl)-propyl]sulfanyl]-N-[(4-fluorophenyl)-methyl]-pyridazine-4-carboxylic acid amide] | 100 | 264 |
| Cc1nc(SCCC(F)(F)c2ccc(F)cc2)c(C(=O)NCc2ccc(F)cc2)s1 [Example 15, 4-[[3,3-Difluoro-3-(4-fluorophenyl)-propyl]sulfanyl]-N-[(4-fluorophenyl)-methyl]-2-methyl-thiazole-5-carboxylic acid amide] | 83 | 231 |

More lines, now with the values ahead:

| Emax [%] | EC50 [nM] | SMILES |
| --- | --- | --- |
| 118 | 1590 | CC(C)CCNC(=O)c1ncccc1SCCC(F)(F)c1ccc(F)cc1 [Example 3, 3-[[3,3-Difluoro-3-(4-fluorophenyl)-propyl]sulfanyl]-N-(3-methyl-butyl)-pyridine-2-carboxylic acid amide] |
| 228 | 849 | CC(C)CCNC(=O)c1cnccc1SCCC(F)(F)c1ccc(F)cc1 [Example 5, 4-[[3,3-Difluoro-3-(4-fluorophenyl)-propyl]sulfanyl]-N-(3-methyl-butyl)-pyridine-3-carboxylic acid amide] |
| 121 | 563 | O=C(NCc1ccc(F)cc1)c1cnccc1SCCC(F)(F)c1ccc(F)cc1 [Example 6, 4-[[3,3-Difluoro-3-(4-fluorophenyl)-propyl]sulfanyl]-N-[(4-fluorophenyl)-methyl]-pyridine-3-carboxylic acid amide] |
| 197 | 1400 | CC(C)CCNC(=O)c1ccncc1SCCC(F)(F)c1ccc(F)cc1 [Example 7, 3-[[3,3-Difluoro-3-(4-fluorophenyl)-propyl]sulfanyl]-N-(3-methyl-butyl)-pyridine-4-carboxylic acid amide] |
| 203 | 427 | CC(C)CCNC(=O)c1ccnnc1SCCC(F)(F)c1ccc(F)cc1 [Example 12, 3-[[3,3-Difluoro-3-(4-fluorophenyl)-propyl]sulfanyl]-N-(3-methyl-butyl)-pyridazine-4-carboxylic acid amide] |
